# According to PubChem BioAssay (NCI):
#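 Tested at 5 concentrations; 48 h exposure; 96-well plates; endpoints linearly interpolated, else capped at highest concentration. TGI marks complete inhibition of growth.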
# How the values were obtained:
# Test in all cases: DTP human tumour cell line panel, 48 h
# MCF7 breast = test system: MCF7 breast
# 786-0 renal = test system: 786-0 renal
# CCRF-CEM leukemia = test system: CCRF-CEM leukemia
# HOP-62 NSCLC = test system: HOP-62 NSCLC
# K-562 leukemia = test system: K-562 leukemia
# U251 CNS = test system: U251 CNS
# SNB-75 CNS = test system: SNB-75 CNS
# MDA-N = test system: MDA-N
# M14 melanoma = test system: M14 melanoma
# SK-MEL-2 melanoma = test system: SK-MEL-2 melanoma
# SK-MEL-5 melanoma = test system: SK-MEL-5 melanoma
# HS 578T breast = test system: HS 578T breast
# UO-31 renal = test system: UO-31 renal
# MDA-MB-435 = test system: MDA-MB-435
# TK-10 renal = test system: TK-10 renal
# LOX IMVI melanoma = test system: LOX IMVI melanoma
# SN12C renal = test system: SN12C renal
# NCI-H460 lung = test system: NCI-H460 lung
# SF-295 CNS = test system: SF-295 CNS
# SNB-19 CNS = test system: SNB-19 CNS
# SW-620 colon = test system: SW-620 colon
# OVCAR-4 ovarian = test system: OVCAR-4 ovarian
# PC-3 prostate = test system: PC-3 prostate
# HCC-2998 colon = test system: HCC-2998 colon
# NCI-H23 lung = test system: NCI-H23 lung
# RPMI-8226 leukemia = test system: RPMI-8226 leukemia
# OVCAR-3 ovarian = test system: OVCAR-3 ovarian
# BT-549 breast = test system: BT-549 breast
# NCI-H226 lung = test system: NCI-H226 lung
# NCI/ADR-RES ovarian = test system: NCI/ADR-RES ovarian
# SF-539 CNS = test system: SF-539 CNS
# OVCAR-8 ovarian = test system: OVCAR-8 ovarian
# MDA-MB-231 breast = test system: MDA-MB-231 breast
# ACHN renal = test system: ACHN renal
# SR leukemia = test system: SR leukemia
# SK-MEL-28 melanoma = test system: SK-MEL-28 melanoma
# COLO 205 colon = test system: COLO 205 colon
# KM12 colon = test system: KM12 colon
# HCT-116 colon = test system: HCT-116 colon
# HT29 colon = test system: HT29 colon
# MOLT-4 leukemia = test system: MOLT-4 leukemia
# SF-268 CNS = test system: SF-268 CNS
# IGROV1 ovarian = test system: IGROV1 ovarian
# SK-OV-3 ovarian = test system: SK-OV-3 ovarian
# UACC-257 melanoma = test system: UACC-257 melanoma
# OVCAR-5 ovarian = test system: OVCAR-5 ovarian
# HCT-15 colon = test system: HCT-15 colon
# A549 NSCLC = test system: A549 NSCLC
# UACC-62 melanoma = test system: UACC-62 melanoma
# MALME-3M melanoma = test system: MALME-3M melanoma
# DU-145 prostate = test system: DU-145 prostate
# HOP-92 NSCLC = test system: HOP-92 NSCLC
# NCI-H522 lung = test system: NCI-H522 lung
# A498 renal = test system: A498 renal
# EKVX NSCLC = test system: EKVX NSCLC
# CAKI-1 renal = test system: CAKI-1 renal
# RXF 393 renal = test system: RXF 393 renal
# HL-60(TB) leukemia = test system: HL-60(TB) leukemia
compound,measurement,setting,value
C[C@@]1(Br)C[C@@](C)(Cl)[C@@H](Br)CC1/C=C/Cl (stereo partly drawn),TGI,MCF7 breast,31.7 µM
same,TGI,786-0 renal,30.2 µM
same,TGI,CCRF-CEM leukemia,27.7 µM
same,TGI,HOP-62 NSCLC,30.7 µM
same,TGI,K-562 leukemia,> 100 µM
same,TGI,U251 CNS,42.6 µM
same,TGI,SNB-75 CNS,25.4 µM
same,TGI,MDA-N,29.7 µM
same,TGI,M14 melanoma,33.2 µM
same,TGI,SK-MEL-2 melanoma,33.2 µM
same,TGI,SK-MEL-5 melanoma,26.4 µM
same,TGI,HS 578T breast,30.6 µM
same,TGI,UO-31 renal,37.4 µM
same,TGI,MDA-MB-435,39.2 µM
same,TGI,TK-10 renal,38 µM
same,TGI,LOX IMVI melanoma,31.4 µM
same,TGI,SN12C renal,28.2 µM
same,TGI,NCI-H460 lung,> 100 µM
same,TGI,SF-295 CNS,27.4 µM
same,TGI,SNB-19 CNS,45.3 µM
same,TGI,SW-620 colon,91.8 µM
same,TGI,OVCAR-4 ovarian,> 100 µM
same,TGI,PC-3 prostate,29.3 µM
same,TGI,HCC-2998 colon,> 100 µM
same,TGI,NCI-H23 lung,> 100 µM
same,TGI,RPMI-8226 leukemia,73.7 µM
same,TGI,OVCAR-3 ovarian,28.4 µM
same,TGI,BT-549 breast,36 µM
same,TGI,NCI-H226 lung,22.8 µM
same,TGI,NCI/ADR-RES ovarian,25.8 µM
same,TGI,SF-539 CNS,31 µM
same,TGI,OVCAR-8 ovarian,29.5 µM
same,TGI,MDA-MB-231 breast,36.2 µM
same,TGI,ACHN renal,32 µM
same,TGI,SR leukemia,41 µM
same,TGI,SK-MEL-28 melanoma,53.7 µM
same,TGI,COLO 205 colon,29 µM
same,TGI,KM12 colon,29.6 µM
same,TGI,HCT-116 colon,22.9 µM
same,TGI,HT29 colon,29.6 µM
same,TGI,MOLT-4 leukemia,33.8 µM
same,TGI,SF-268 CNS,23 µM
same,TGI,IGROV1 ovarian,86.1 µM
same,TGI,SK-OV-3 ovarian,37 µM
same,TGI,UACC-257 melanoma,37.3 µM
same,TGI,OVCAR-5 ovarian,29.1 µM
same,TGI,HCT-15 colon,> 100 µM
same,TGI,A549 NSCLC,61.7 µM
COc1ccc(C(=O)NCCC2CN(S(=O)(=O)C(F)(F)F)c3ccccc32)c(OC)c1 (stereo not drawn),TGI,MCF7 breast,> 100 µM
same,TGI,786-0 renal,> 100 µM
same,TGI,CCRF-CEM leukemia,70.3 µM
same,TGI,UACC-62 melanoma,80.1 µM
same,TGI,HOP-62 NSCLC,> 100 µM
same,TGI,K-562 leukemia,> 100 µM
same,TGI,MALME-3M melanoma,35.3 µM
same,TGI,DU-145 prostate,> 100 µM
same,TGI,U251 CNS,> 100 µM
same,TGI,MDA-N,> 100 µM
same,TGI,M14 melanoma,> 100 µM
same,TGI,SK-MEL-2 melanoma,> 100 µM
same,TGI,SK-MEL-5 melanoma,43.6 µM
same,TGI,HOP-92 NSCLC,> 100 µM
same,TGI,HS 578T breast,> 100 µM
same,TGI,UO-31 renal,> 100 µM
same,TGI,MDA-MB-435,> 100 µM
same,TGI,NCI-H460 lung,> 100 µM
same,TGI,SF-295 CNS,> 100 µM
same,TGI,SNB-19 CNS,> 100 µM
same,TGI,SW-620 colon,> 100 µM
same,TGI,OVCAR-4 ovarian,> 100 µM
same,TGI,PC-3 prostate,> 100 µM
same,TGI,HCC-2998 colon,> 100 µM
same,TGI,NCI-H23 lung,> 100 µM
same,TGI,RPMI-8226 leukemia,> 100 µM
same,TGI,OVCAR-3 ovarian,> 100 µM
same,TGI,NCI-H522 lung,46.8 µM
same,TGI,NCI/ADR-RES ovarian,87.2 µM
same,TGI,A498 renal,> 100 µM
same,TGI,EKVX NSCLC,> 100 µM
same,TGI,MDA-MB-231 breast,> 100 µM
same,TGI,ACHN renal,> 100 µM
same,TGI,SR leukemia,> 100 µM
same,TGI,CAKI-1 renal,> 100 µM
same,TGI,RXF 393 renal,> 100 µM
same,TGI,SK-MEL-28 melanoma,> 100 µM
same,TGI,COLO 205 colon,> 100 µM
same,TGI,KM12 colon,71.3 µM
same,TGI,HCT-116 colon,> 100 µM
same,TGI,HT29 colon,73.8 µM
same,TGI,MOLT-4 leukemia,> 100 µM
same,TGI,IGROV1 ovarian,> 100 µM
same,TGI,SK-OV-3 ovarian,> 100 µM
same,TGI,UACC-257 melanoma,> 100 µM
same,TGI,OVCAR-5 ovarian,> 100 µM
same,TGI,HCT-15 colon,> 100 µM
same,TGI,A549 NSCLC,> 100 µM
CC(=O)Nc1ccc(S(=O)(=O)Nc2nc(-c3ccc(Cl)cc3)cc(N3N=C(c4ccc(Br)cc4)CC3c3ccccc3)n2)cc1 (stereo not drawn),TGI,MCF7 breast,16.6 µM
same,TGI,786-0 renal,44 µM
same,TGI,CCRF-CEM leukemia,90.3 µM
same,TGI,UACC-62 melanoma,25.2 µM
same,TGI,HOP-62 NSCLC,35.3 µM
same,TGI,K-562 leukemia,23.3 µM
same,TGI,MALME-3M melanoma,40.7 µM
same,TGI,DU-145 prostate,62.4 µM
same,TGI,U251 CNS,32.1 µM
same,TGI,MDA-N,29.8 µM
same,TGI,M14 melanoma,43 µM
same,TGI,SK-MEL-2 melanoma,30.5 µM
same,TGI,HOP-92 NSCLC,32.4 µM
same,TGI,HS 578T breast,31 µM
same,TGI,UO-31 renal,30.5 µM
same,TGI,MDA-MB-435,19.6 µM
same,TGI,TK-10 renal,33.5 µM
same,TGI,LOX IMVI melanoma,29.5 µM
same,TGI,SN12C renal,32.3 µM
same,TGI,NCI-H460 lung,44.3 µM
same,TGI,SF-295 CNS,31.5 µM
same,TGI,SNB-19 CNS,33.8 µM
same,TGI,SW-620 colon,52.5 µM
same,TGI,OVCAR-4 ovarian,30 µM
same,TGI,PC-3 prostate,36.1 µM
same,TGI,NCI-H23 lung,41.2 µM
same,TGI,HL-60(TB) leukemia,38.1 µM
same,TGI,RPMI-8226 leukemia,37.5 µM
same,TGI,OVCAR-3 ovarian,8.46 µM
same,TGI,BT-549 breast,34 µM
same,TGI,NCI-H226 lung,31.8 µM
same,TGI,NCI-H522 lung,31 µM
same,TGI,NCI/ADR-RES ovarian,34.4 µM
same,TGI,SF-539 CNS,31.1 µM
same,TGI,OVCAR-8 ovarian,33.3 µM
same,TGI,EKVX NSCLC,26.5 µM
same,TGI,MDA-MB-231 breast,28.6 µM
same,TGI,ACHN renal,58.3 µM
same,TGI,SR leukemia,56.6 µM
same,TGI,RXF 393 renal,39.7 µM
same,TGI,SK-MEL-28 melanoma,35.1 µM
same,TGI,COLO 205 colon,27.1 µM
same,TGI,KM12 colon,40.4 µM
same,TGI,HCT-116 colon,42.7 µM
same,TGI,HT29 colon,28.3 µM
same,TGI,MOLT-4 leukemia,39.5 µM
same,TGI,IGROV1 ovarian,24.1 µM
same,TGI,SK-OV-3 ovarian,29.9 µM
same,TGI,UACC-257 melanoma,37.3 µM
same,TGI,OVCAR-5 ovarian,27.8 µM
same,TGI,HCT-15 colon,31.9 µM
same,TGI,A549 NSCLC,31.5 µM
